Data taken from PubChem BioAssay AID248 (DTP/NCI, 2004).
Several values for one entry are separate records, joined by “and”; a condition that tells them apart may be missing. Equal entries are not always repeated. Inconclusive results and toxic doses are left out.

System: L1210 leukemia ip in BDF1 mice, survival T/C
Assay: NCI In Vivo Anticancer Drug Screen. Data for tumor model L1210 Leukemia (intraperitoneal) in B6D2F1 (BDF1) mice
Details: endpoint: mean survival time, higher = longer survival
In short: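 Survival endpoint. Drug-treated group vs vehicle group, expressed as T divided by C. Tumor passaged by transplantation.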

## N[C@@H](Cc1ccc(N(CCCl)CCCl)cc1)C(=O)O
dose: 0.1 mg/kg/injection, schedule: Q01DX015 (ip), vehicle: carboxymethylcellulose (CMC)
  T/C: 101 % of control and 102 % of control
dose: 0.13 mg/kg/injection, schedule: Q01DX009 (ip), vehicle: Klucel (hydroxypropylcellulose) (HPC)
  T/C: 110 % of control
dose: 0.2 mg/kg/injection, schedule: Q01DX015 (ip), vehicle: carboxymethylcellulose (CMC)
  T/C: 104 % of control and 111 % of control
dose: 0.25 mg/kg/injection, schedule: Q01DX009 (ip), vehicle: Klucel (hydroxypropylcellulose) (HPC)
  T/C: 105 % of control and 115 % of control
dose: 0.39 mg/kg/injection, schedule: Q01DX001 (ip), vehicle: carboxymethylcellulose (CMC)
  T/C: 102 % of control
dose: 0.4 mg/kg/injection, schedule: Q01DX015 (ip), vehicle: carboxymethylcellulose (CMC)
  T/C: 109 % of control and 117 % of control
dose: 0.45 mg/kg/injection, schedule: Q04DX002 (ip), vehicle: Klucel (hydroxypropylcellulose) (HPC)
  T/C: 96 % of control
dose: 0.5 mg/kg/injection, schedule: Q01DX005 (ip), vehicle: saline
  T/C: 111 % of control
dose: 0.5 mg/kg/injection, schedule: Q01DX009 (ip), vehicle: Klucel (hydroxypropylcellulose) (HPC)
  T/C: 115 % of control and 116 % of control
dose: 0.5 mg/kg/injection, schedule: Q01DX009 (ip), vehicle: saline
  T/C: 120 % of control
dose: 0.5 mg/kg/injection, schedule: Q03DX Z (ip), vehicle: carboxymethylcellulose (CMC)
  T/C: 113 % of control
dose: 0.5 mg/kg/injection, schedule: Q03HX008 (ip), vehicle: saline
  T/C: 114 % of control
dose: 0.5 mg/kg/injection, schedule: Q03HX016 (ip), vehicle: saline
  T/C: 124 % of control
dose: 0.78 mg/kg/injection, schedule: Q01DX001 (ip), vehicle: carboxymethylcellulose (CMC)
  T/C: 108 % of control
dose: 0.8 mg/kg/injection, schedule: Q01DX015 (ip), vehicle: carboxymethylcellulose (CMC)
  T/C: 121 % of control
dose: 0.9 mg/kg/injection, schedule: Q04DX002 (ip), vehicle: Klucel (hydroxypropylcellulose) (HPC)
  T/C: 104 % of control and 115 % of control
dose: 1.0 mg/kg/injection, schedule: Q01DX005 (ip), vehicle: saline
  T/C: 123 % of control
dose: 1.0 mg/kg/injection, schedule: Q01DX006 (iv), vehicle: carboxymethylcellulose (CMC)
  T/C: 107 % of control
dose: 1.0 mg/kg/injection, schedule: Q01DX009 (oral), vehicle: saline
  T/C: 111 % of control
dose: 1.0 mg/kg/injection, schedule: Q01DX Z (im), vehicle: carboxymethylcellulose (CMC)
  T/C: 96 % of control
dose: 1.0 mg/kg/injection, schedule: Q01DX Z (ip), vehicle: carboxymethylcellulose (CMC)
  T/C: 94 % of control
dose: 1.0 mg/kg/injection, schedule: Q01DX Z (sc), vehicle: carboxymethylcellulose (CMC)
  T/C: 94 % of control
dose: 1.0 mg/kg/injection, schedule: Q03HX008 (ip), vehicle: saline
  T/C: 119 % of control
dose: 1.0 mg/kg/injection, schedule: Q#A X Z (ip), vehicle: carboxymethylcellulose (CMC)
  T/C: 94 % of control
dose: 1.13 mg/kg/injection, schedule: Q01DX001 (ip), vehicle: carboxymethylcellulose (CMC)
  T/C: 111 % of control and 121 % of control
dose: 1.56 mg/kg/injection, schedule: Q01DX001 (ip), vehicle: saline
  T/C: 104 % of control and 107 % of control
dose: 1.6 mg/kg/injection, schedule: Q01DX015 (ip), vehicle: carboxymethylcellulose (CMC)
  T/C: 154 % of control
dose: 1.8 mg/kg/injection, schedule: Q04DX002 (ip), vehicle: Klucel (hydroxypropylcellulose) (HPC)
  T/C: 117 % of control and 118 % of control
dose: 2.0 mg/kg/injection, schedule: Q01DX006 (iv), vehicle: carboxymethylcellulose (CMC)
  T/C: 110 % of control
dose: 2.0 mg/kg/injection, schedule: Q01DX Z (im), vehicle: carboxymethylcellulose (CMC)
  T/C: 98 % of control
dose: 2.0 mg/kg/injection, schedule: Q01DX Z (ip), vehicle: carboxymethylcellulose (CMC)
  T/C: 93 % of control
dose: 2.0 mg/kg/injection, schedule: Q01DX Z (oral), vehicle: carboxymethylcellulose (CMC)
  T/C: 115 % of control
dose: 2.0 mg/kg/injection, schedule: Q01DX Z (sc), vehicle: carboxymethylcellulose (CMC)
  T/C: 104 % of control
dose: 2.0 mg/kg/injection, schedule: Q03DX Z (ip), vehicle: carboxymethylcellulose (CMC)
  T/C: 153 % of control
dose: 2.16 mg/kg/injection, schedule: Q04DX003 (ip), vehicle: saline
  T/C: 151 % of control
dose: 2.37 mg/kg/injection, schedule: Q01DX009 (ip), vehicle: other
  T/C: 150 % of control
dose: 3.0 mg/kg/injection, schedule: Q03DX Z (ip), vehicle: carboxymethylcellulose (CMC)
  T/C: 115 % of control
dose: 3.12 mg/kg/injection, schedule: Q01DX001 (ip), vehicle: saline
  T/C: 109 % of control and 112 % of control
dose: 3.6 mg/kg/injection, schedule: Q03HX024 (ip), vehicle: other
  T/C: 104 % of control
dose: 4.0 mg/kg/injection, schedule: Q01DX001 (ip), vehicle: saline
  T/C: 124 % of control
dose: 4.0 mg/kg/injection, schedule: Q01DX001 (sc), vehicle: saline
  T/C: 121 % of control
dose: 4.0 mg/kg/injection, schedule: Q01DX006 (iv), vehicle: carboxymethylcellulose (CMC)
  T/C: 102 % of control
dose: 4.0 mg/kg/injection, schedule: Q01DX009 (oral), vehicle: saline
  T/C: 151 % of control
dose: 4.0 mg/kg/injection, schedule: Q01DX Z (im), vehicle: carboxymethylcellulose (CMC)
  T/C: 104 % of control
dose: 4.0 mg/kg/injection, schedule: Q01DX Z (ip), vehicle: carboxymethylcellulose (CMC)
  T/C: 98 % of control
dose: 4.0 mg/kg/injection, schedule: Q01DX Z (oral), vehicle: carboxymethylcellulose (CMC)
  T/C: 104 % of control
dose: 4.0 mg/kg/injection, schedule: Q01DX Z (sc), vehicle: carboxymethylcellulose (CMC)
  T/C: 102 % of control
dose: 4.0 mg/kg/injection, schedule: Q03HX024 (ip), vehicle: saline
  T/C: 122 % of control
dose: 4.0 mg/kg/injection, schedule: Q#A X Z (ip), vehicle: carboxymethylcellulose (CMC)
  T/C: 110 % of control
dose: 6.0 mg/kg/injection, schedule: Q03DX Z (ip), vehicle: carboxymethylcellulose (CMC)
  T/C: 106 % of control
dose: 6.25 mg/kg/injection, schedule: Q01DX001 (ip), vehicle: saline
  T/C: 120 % of control
dose: 7.0 mg/kg/injection, schedule: Q01DX001 (ip), vehicle: carboxymethylcellulose (CMC)
  T/C: 110 % of control and 115 % of control
dose: 7.0 mg/kg/injection, schedule: Q07DX Z (ip), vehicle: carboxymethylcellulose (CMC)
  T/C: 107 % of control
dose: 7.5 mg/kg/injection, schedule: Q01DX009 (ip), vehicle: saline
  T/C: 100 % of control and 107 % of control
dose: 8.0 mg/kg/injection, schedule: Q01DX001 (oral), vehicle: saline
  T/C: 123 % of control
dose: 8.0 mg/kg/injection, schedule: Q01DX001 (sc), vehicle: saline
  T/C: 117 % of control
dose: 8.0 mg/kg/injection, schedule: Q01DX005 (ip), vehicle: saline
  T/C: 154 % of control
dose: 8.0 mg/kg/injection, schedule: Q01DX006 (iv), vehicle: carboxymethylcellulose (CMC)
  T/C: 104 % of control
dose: 8.0 mg/kg/injection, schedule: Q01DX009 (ip), vehicle: Klucel (hydroxypropylcellulose) (HPC)
  T/C: 121 % of control
dose: 8.0 mg/kg/injection, schedule: Q01DX009 (ip), vehicle: saline
  T/C: 114 % of control
dose: 8.0 mg/kg/injection, schedule: Q01DX009 (oral), vehicle: saline
  T/C: 112 % of control
dose: 8.0 mg/kg/injection, schedule: Q01DX009 (sc), vehicle: saline
  T/C: 95 % of control
dose: 8.0 mg/kg/injection, schedule: Q01DX Z (im), vehicle: carboxymethylcellulose (CMC)
  T/C: 98 % of control
dose: 8.0 mg/kg/injection, schedule: Q01DX Z (oral), vehicle: carboxymethylcellulose (CMC)
  T/C: 104 % of control
dose: 8.0 mg/kg/injection, schedule: Q01DX Z (sc), vehicle: carboxymethylcellulose (CMC)
  T/C: 96 % of control
dose: 12.0 mg/kg/injection, schedule: Q03DX Z (ip), vehicle: carboxymethylcellulose (CMC)
  T/C: 105 % of control
dose: 12.5 mg/kg/injection, schedule: Q01DX Z (ip), vehicle: carboxymethylcellulose (CMC)
  T/C: 102 % of control
dose: 14.0 mg/kg/injection, schedule: Q01DX001 (ip), vehicle: carboxymethylcellulose (CMC)
  T/C: 115 % of control and 117 % of control
dose: 14.0 mg/kg/injection, schedule: Q07DX Z (ip), vehicle: carboxymethylcellulose (CMC)
  T/C: 98 % of control
dose: 16.0 mg/kg/injection, schedule: Q01DX Z (ip), vehicle: carboxymethylcellulose (CMC)
  T/C: 106 % of control
dose: 16.0 mg/kg/injection, schedule: Q01DX Z (oral), vehicle: carboxymethylcellulose (CMC)
  T/C: 102 % of control
dose: 16.7 mg/kg/injection, schedule: Q01DX001 (ip), vehicle: saline
  T/C: 123 % of control
dose: 24.0 mg/kg/injection, schedule: Q03DX Z (ip), vehicle: carboxymethylcellulose (CMC)
  T/C: 105 % of control
dose: 25.0 mg/kg/injection, schedule: Q01DX001 (ip), vehicle: saline
  T/C: 154 % of control
dose: 28.0 mg/kg/injection, schedule: Q01DX001 (ip), vehicle: carboxymethylcellulose (CMC)
  T/C: 107 % of control
dose: 28.0 mg/kg/injection, schedule: Q07DX Z (ip), vehicle: carboxymethylcellulose (CMC)
  T/C: 94 % of control
dose: 29.0 mg/kg/injection, schedule: Q04DX003 (ip), vehicle: other
  T/C: 95 % of control
dose: 30.0 mg/kg/injection, schedule: Q01DX001 (ip), vehicle: carboxymethylcellulose (CMC)
  T/C: 153 % of control
dose: 32.0 mg/kg/injection, schedule: Q01DX001 (ip), vehicle: saline
  T/C: 121 % of control
dose: 32.0 mg/kg/injection, schedule: Q01DX001 (oral), vehicle: saline
  T/C: 93 % of control
dose: 32.0 mg/kg/injection, schedule: Q01DX Z (oral), vehicle: carboxymethylcellulose (CMC)
  T/C: 104 % of control
dose: 56.0 mg/kg/injection, schedule: Q01DX001 (ip), vehicle: carboxymethylcellulose (CMC)
  T/C: 107 % of control and 117 % of control
dose: 56.0 mg/kg/injection, schedule: Q07DX Z (ip), vehicle: carboxymethylcellulose (CMC)
  T/C: 96 % of control
